# Values joined by “and” are separate entries in the source; they are usually repeats but may differ in a detail not shown here. Identical values can stand only once. “Also recorded” adds a separate entry of the source. Like-named read-outs stand apart in the source and are kept apart here. Non-standard residues stand in square brackets, D forms with d. Residues, ends and D or L forms follow the SMILES beside them. *: point of attachment. Dolaproine = CO[C@@H]([C@@H]1CCCN1)[C@@H](C)C(=O)O; Dil = CC[C@H](C)[C@H](NC)[C@@H](CC(=O)O)OC; X1 = C[C@@H](N*)[C@@H](O)c1ccccc1; NMeV = CN[C@H](C(=O)O)C(C)C
# Key:
# [1] = tested on: HCT-116 cells; experiment: Apoptosis (sub-G1 population) after MMAE and IR; type: cell-based, Human
# Protocol: Cells were treated with MMAE for 24 hours and then fixed in methanol. Cells were treated with RNAse, stained with propidium iodide (PI), and analyzed by FACS using FlowJo software.
# Because MMAE reduced clonogenic cell survival following IR, we tested whether MMAE increased apoptosis in irradiated cells. HCT-116 cells were treated with MMAE for 24 hours followed by IR. Cells were collected 24 hours after IR and the sub-G1 population (apoptotic) was measured. […] Because MMAE increased DNA double-strand breaks in irradiated cells (FIG. 34), we then evaluated whether MMAE altered the DNA damage response in irradiated cells. HCT-116 cells were treated with MMAE for 24 hours followed by 6 Gy. Cells were collected 1 hour after IR, and activation of the DNA damage checkpoint proteins CHK1 (pS345) and CHK2 (pT68) was ascertained (FIG. 36B). […] Upon DNA damage, histone H2A becomes phosphorylated at S139, γH2AX.
# [2] = tested on: PANC-1 cells; experiment: Alamar Blue cell viability assay; type: cell-based, Human
# Protocol: (§1) Cells were plated in 96 well plates at varying cell densities and exposed to range of concentrations of MMAE or paclitaxel for 72 hrs. Alamar Blue (also known as resazurin) was added to the cells and allowed to incubate for 2 hrs at 37° C. Plates were analyzed using a plate reader with fluorescence measured at 560 nm. For irradiated cells, cells were treated with MMAE overnight followed by 6 Gy.
# (§2) Cells were plated in 96-well plates and exposed to MMAE or paclitaxel for 72 hours and analyzed at 560 nm. For irradiated cells, cells were treated with MMAE overnight followed by 6 Gy.
# [3] = tested on: 779E cells; experiment: Alamar Blue cell viability assay; type: cell-based, Human
# Protocol: as §1, §2
# [4] = tested on: CAL-27 cells; experiment: Alamar Blue cell viability assay; type: cell-based, Human; conditions: 72 hours
# Protocol: (§3) Alamar Blue (resazurin) was added to the cells and allowed to incubate for 2 hrs at 37° C. Plates were analyzed using a plate reader with fluorescence measured at 560 nm.
# [5] = tested on: LN-229 cells; experiment: Alamar Blue cell viability assay; type: cell-based; conditions: 72 hours
# Protocol: as §3
# [6] = tested on: PANC-1 tumor xenografts; experiment: In vivo tumor xenograft growth with or without IR; parameters: species or system mice
# Protocol: HCT-116 or PANC-1 tumor xenografts were established and tumor growth was measured with digital calipers. Tumor volume was calculated using the formula as ½*Length*Width^2. Mice were randomized into groups once the average tumor volume reached 250 mm^3. Mice were assigned to groups: Vehicle, ACPP-cRGD-MMAE, fractionated IR or the combination. ACPP-cRGD-MMAE lyophilized powder was suspended in sterile deionized water just prior to tail vein injection. MMAE doses and IR fractionation are as indicated in the Results.
# HCT-116 or PANC-1 tumor growth was measured with digital calipers. Tumor volume was calculated using the formula as ½×length×width^2. Mice were randomized into groups as indicated in Results once the average tumor volume reached >200 mm^3. Free MMAE was injected on an equimolar basis to ACPP-cRGD-MMAE.
# [7] = tested on: CAL-27 cells; experiment: Cell cycle analysis by flow cytometry (PI); type: cell-based, Human; conditions: 5 nM, 24 hrs
# Protocol: Cells were treated with RNAse, stained with propidium iodide (PI) and analyzed by FACS using FloJo software.
# [8] = tested on: PANC-1 cells; experiment: Clonogenic survival assay with IR; type: cell-based, Human
# Protocol: (§4) Cells were treated with 0, 1, 2, or 5 nM of MMAE for 24 hours and then irradiated with 0, 2, or 6 Gy. Following IR, cells were counted, re-plated at varying cell numbers in drug free media. Colonies were counted […]. Colonies were then fixed and stained with crystal violet to quantify colonies.
# (§5) Cells were treated with MMAE for 24 hours and then irradiated with 0 to 8 Gy. Following IR, cells were replated in drug-free media. Colonies formed over 10 to 14 days and were counted.
# [9] = tested on: HCT-116 cells; experiment: Clonogenic survival assay with IR; type: cell-based, Human
# Protocol: as §4, §5
# [10] = tested on: XPA-1 cells; experiment: Neutral comet assay (DNA double strand breaks); type: cell-based; conditions: MMAE overnight, then IR
# Protocol: (§6) Cells were treated for indicated length and doses of MMAE followed by 6 Gy. Cells were harvested 15 minutes after IR and underwent neutral electrophoresis (Trevigen). Comet tails were counted in multiple fields (>60 cells per sample) and analyzed using CometScore (TriTek Corp).
# [11] = tested on: HCT-116 cells; experiment: Neutral comet assay (DNA double strand breaks); type: cell-based, Human
# Protocol: (§7) Cells were treated for 24 hours with indicated doses of MMAE and then irradiated with 6 Gy. Cells were harvested 15 minutes post IR, suspended in agarose gel and lysed per assay directions (Trevigen). Samples underwent electrophoresis under neutral conditions and were then stained with Sybr Green. Comet tails were counted in multiple fields (>60 cells per sample) and analyzed using CometScore (TriTek Corp).
# as §6
# [12] = tested on: 779E cells; experiment: Neutral comet assay (DNA double strand breaks); type: cell-based, Human; conditions: MMAE overnight in combination with IR
# Protocol: as §7, §6
# [13] = tested on: HCT-116 cells; experiment: Alamar Blue cell viability assay; type: cell-based, Human
# Protocol: Alamar Blue (also known as resazurin) was added to the cells and allowed to incubate for 2 hrs at 37° C. Plates were analyzed using a plate reader with fluorescence measured at 560 nm. For irradiated cells, cells were treated with MMAE overnight followed by 6 Gy.
# as §3, §2
# [14] = 72 hours exposure (Example 3), read-out: IC50
# [15] = 72 hours exposure, read-out: IC50
# [16] = MMAE overnight then 6 Gy IR, continuous exposure, viability at 72 hours, read-out: IC50 for MMAE
smiles,measurement,setting,value
"CC[C@H](C)[C@@H]([C@@H](CC(=O)N1CCC[C@H]1[C@H](OC)[C@@H](C)C(=O)N[C@H](C)[C@@H](O)c1ccccc1)OC)N(C)C(=O)[C@@H](NC(=O)[C@@H](NC)C(C)C)C(C)C [MMAE, monomethyl auristatin E] (H-[NMeV]V[Dil][Dolaproine]-X1)","apoptosis, IR combined with MMAE vs MMAE","[1]; MMAE 24 hours then IR, collected 24 hours after IR",no further increase in apoptosis
same,apoptosis vs vehicle,"[1]; MMAE alone, 24 hours",significant increase in apoptosis
same,IC50,[2]; [14],600 pM
same,IC50,[2]; [15],600 pM
same,IC50,"[2]; IR 6 Gy combined with MMAE (Example 3), read-out: IC50 for MMAE",400 pM
same,IC50,"[2]; MMAE alone, no IR, continuous exposure, viability at 72 hours, read-out: IC50 for MMAE",810 pM
same,IC50,[2]; [16],350 pM
same,relative reduction in the IC50 of MMAE,[2]; MMAE with 6 Gy IR vs MMAE alone,> 50% and ~50%
same,IC50,"[2]; non-irradiated (Example 3), read-out: IC50 for MMAE",800 pM
same,IC50,[3]; 72 hours exposure,5610 pM
same,IC50,[3]; 72 hours exposure (Example 3),5600 pM
same,IC50,[4],1100 pM
same,IC50,[5],3800 pM
same,"V(end)/V(0) ≤ 1, PANC-1, expt 1","[6]; day 30, + IR",0%
same,"V(end)/V(0) ≤ 1, PANC-1, expt 1","[6]; day 30, no IR",0%
same,tumor xenografts smaller than starting tumor volume,"[6]; expt 1, day 20, no IR",None
same,tumor xenografts less than or equal to starting tumor volume,"[6]; expt 1, day 20, with IR",4/10
same,tumor regression vs IR or free MMAE alone,"[6]; expt 1: 6 nmoles days 0 and 1 plus IR 3 Gy days 1 and 2, listed as free MMAE",increased tumor xenograft regression; also recorded: profound tumor xenograft regression
same,average tumor volume relative to untreated controls,"[6]; expt 1: iv days 0 and 1, 6 nmoles/day, no IR, day 30",75%
same,tumor growth vs untreated control,"[6]; expt 1: iv days 0 and 1, 6 nmoles/day, no IR, listed as free MMAE","modest, but statistically significant growth delay; also recorded: small but statistically significant growth delay"
same,cells in G2/M,[7],60%
same,clonogenic survival curve vs vehicle,"[8]; 2 nM MMAE overnight, then irradiated, re-plated drug free",loss of the shoulder region of the survival curve at 2 Gy; also recorded: increased tumor cell kill at doses as low as 2 Gy
same,colony formation,[8]; 5 nM MMAE,Too few colonies formed
same,surviving fraction at 2 Gy (SF2) vs vehicle,"[8]; 1 or 2 nM MMAE overnight, 2 Gy",significantly reduced
same,surviving fraction at 2 Gy (SF2) vs vehicle,[9]; 1 nM MMAE overnight,not significantly different
same,clonogenic survival curve vs vehicle,"[9]; 5 nM MMAE overnight, then irradiated, re-plated drug free",loss of the shoulder region of the survival curve at 2 Gy; also recorded: increased tumor cell kill at doses as low as 2 Gy
same,surviving fraction at 2 Gy (SF2) vs vehicle,[9]; 2 and 5 nM MMAE overnight,significant reduction
same,comet tail length,[10],significantly increased comet tail length
same,comet tail length vs IR alone,"[11]; 1 nM MMAE 24 hours, then 6 Gy",did not significantly increase; also recorded: did not increase DNA damage over IR alone
same,comet tail length vs IR alone,"[11]; 5 nM MMAE 24 hours, then 6 Gy",significant increase; also recorded: significantly increased comet tail length
same,comet tail length vs IR alone,"[11]; 5 nmol/L MMAE for 2 or 4 hours, then IR",did not increase comet tail length
same,comet tail length vs vehicle,"[11]; non-irradiated, 1 or 5 nM MMAE overnight",no significant effect
same,comet tail length,[12],significantly increased comet tail length
same,IC50,[13]; [14],1700 pM
same,IC50,[13]; [15],1660 pM
same,IC50,"[13]; MMAE alone, no IR (Example 3), read-out: IC50 for MMAE",1600 pM
same,IC50,"[13]; MMAE alone, no IR, continuous exposure, viability 72 hours after initiation, read-out: IC50 for MMAE",1580 pM
same,IC50,"[13]; MMAE and 6 Gy IR (Example 3), read-out: IC50 for MMAE",800 pM
same,IC50,[13]; [16],780 pM

# Reference: US10596259B2, “Tumor radiosensitization with monomethyl auristatin E (MMAE) and derivatives thereof” (The Regents of the University of California, priority 2015, dated 2020)
